In US20230390273A1, “4-PHENYL-TETRAHYDROPYRIDINE DERIVATIVES FOR TREATING HEARING DISEASES” (CILCARE DEV, priority 2021, published 2023):
Structures can show the parent of a compound that is named as a salt. Where two headings read alike, the source gives them in different places.

Assays:
[1] = Plasma and inner ear fluid exposure after single trans-tympanic injection in lipid-based mucoadhesive solution (Example 3); type: in vivo, male Wistar rats; details: for concentration at 1 h: T0 + 1 hour; for concentration at 24 h: T0 + 24 hours; for High concentrations rapidly reached in the IEF (molar) / High concentrations rapidly reached in the inner ear fluid: trans-tympanic injection; for High concentrations rapidly reached in the IEF (molar): approximate conversion; for High concentrations rapidly reached in the inner ear fluid: summary
Experimental: Composition 7P and composition 7X as described in example 2 were administered to male Wistar rats (5 animals per active agent and timepoint), as described below.
At time T0, 30 μL of composition 7P were administered to 15 rats, in a single ear via trans-tympanic injection. The dose of paliroden fumarate that has been administered is thus of 243 μg in one ear of each rat.
At time T0, 30 μL of composition 7X were administered to 15 other rats, in a single ear via trans-tympanic injection. The dose of xaliproden hydrochloride that has been administered is thus of 181.2 μg in one ear of each rat.
For the 15 rats that have received composition 7P and for the 15 rats that have received composition 7X, plasmatic and inner ear expositions were determined via blood and cochlea terminal sampling in order to achieve lithium-heparin plasma and inner ear fluid preparation, at T+1 hour, T+24 hours and T+168 hours. Bioanalytical methods were validated in both matrices (lithium heparin plasma and inner ear fluid) with a range of 0.2 to 815 ng/mL for paliroden (fumarate salt) and 0.2 to 763 ng/mL for xaliproden (hydrochloride salt).

[2] = Solubility of paliroden and xaliproden in trans-tympanic compositions and in water (Example 2); type: physicochemical
Experimental: Eight compositions compatible with trans-tympanic injections were prepared: four thermoreversible gel compositions and four lipid-based mucoadhesive solutions. These eight compositions were prepared both with paliroden fumarate as active agent, and with xaliproden hydrochloride as active agent. The solubility of respectively paliroden and xaliproden in the compositions was measured.

[3] = Plasma and inner ear fluid exposure after single oral gavage (Example 1); type: in vivo, male Wistar rats; details: for concentration at 1 h / concentration at 2 h / concentration at 4 h / concentration at 6 h / concentration at 8 h / concentration at 24 h: male, Wistar; for concentration at 1 h: T0 + 1 hour; for concentration at 2 h: T0 + 2 hours; for concentration at 4 h: T0 + 4 hours; for concentration at 6 h: T0 + 6 hours; for concentration at 8 h: T0 + 8 hours
Experimental: Two compositions were prepared: composition A and composition B.
Composition A is an aqueous solution comprising: • 6 mg/mL (free base equivalent) of fumarate salt of 1-[2-(4-biphenylyl)ethyl]-4-(3-trifluoromethylphenyl)-1,2,3,6-tetrahydropyridine (=paliroden fumarate), and • 0.6% w/v of methylcellulose with respect to the total volume of the aqueous solution.
Composition B is an aqueous solution comprising: • 4 mg/mL (free base equivalent) of hydrochloride salt of 1-[2-(2-naphthyl)ethyl]-4-(3-trifluoromethylphenyl)-1,2,3,6-tetrahydropyridine (=xaliproden hydrochloride), and • 10% w/v of arabic gum with respect to the total mass of the aqueous solution.
Composition A and composition B were administered to male Wistar rats (5 animals per active agent and timepoint), as described below.
Composition A was administered to 15 male Wistar rats, once, at time TO, via oral injection by gavage, at a dose of 5 mL of composition A per kilogram of the animal, i.e. a dose of 30 mg of paliroden fumarate per kilogram of the animal. The concentration of paliroden in rats plasma and in rats inner ear fluid (IEF) was measured at 6 timepoints, 5 rats being used at each timepoint for the concentration measurements (in the plasma and optionally in the IEF). The timepoints are T0+1 hour, T0+2 hours, T0+4 hours, T0+6 hours, T0+8 hours and T0+24 hours for the concentration measurement in the rats plasma. The timepoints are T0+2 hours, T0+4 hours and T0+24 hours for the concentration measurement in the rats inner ear fluid, as part of a terminal procedure including cochlea sampling and inner ear fluids collection from both ears of the rats. Bioanalytical methods were validated in both matrices (lithium heparin plasma and inner ear fluid) with a range of 0.25 to 500 ng/mL in plasma and 0.25 to 100 ng/mL in inner ear fluids.
Composition B was administered to 15 others male Wistar rats, once, at time T0, via oral injection by gavage, at a dose of 5 mL of composition B per kilogram of the animal, i.e. a dose of 20 mg of xaliproden hydrochloride per kilogram of the animal. The concentration of xaliproden in rats plasma and in rats inner ear fluid (IEF) was measured at 6 timepoints, 5 rats being used at each timepoint for the concentrations measurements (in the plasma and optionally in the IEF). The timepoints are T0+1 hour, T0+2 hours, T0+4 hours, T0+6 hours, T0+8 hours and T0+24 hours for the concentration measurement in the rats plasma. The timepoints are T0+2 hours, T0+4 hours and T0+24 hours for the concentration measurement in the rats inner ear fluid, as part of a terminal procedure including cochlea sampling and inner ear fluids collection from both ears of the rats. Bioanalytical methods were validated in both matrices (lithium heparin plasma and inner ear fluid) with a range of 0.25 to 500 ng/mL in plasma and 0.25 to 500 ng/mL in inner ear fluids.

[4] = male, Wistar, other: trans-tympanic injection, rat inner ear fluid, trans-tympanic 181.2 μg, read-out: Concentration of xaliproden (hydrochloride salt), IEF, Mean
[5] = male, Wistar, plasma, other: trans-tympanic injection, rat, trans-tympanic 181.2 μg one ear, read-out: Concentration of xaliproden (hydrochloride salt), Plasma, Mean
[6] = plasma, rat, single oral 20 mg/kg, read-out: Concentration of xaliproden (hydrochloride salt), Plasma, Mean
[7] = rat inner ear fluid, single oral 20 mg/kg, read-out: Concentration of xaliproden (hydrochloride salt), IEF, Mean
[8] = male, Wistar, other: trans-tympanic injection, rat inner ear fluid, trans-tympanic 243 μg, read-out: Concentration of paliroden (fumarate salt), IEF, Mean
[9] = male, Wistar, plasma, other: trans-tympanic injection, rat, trans-tympanic 243 μg one ear, read-out: Concentration of paliroden (fumarate salt), Plasma, Mean
[10] = plasma, rat, single oral 30 mg/kg, read-out: Concentration of paliroden (fumarate salt), Plasma, Mean
[11] = rat inner ear fluid, single oral 30 mg/kg, read-out: Concentration of paliroden (fumarate salt), IEF, Mean

SMILES: FC(F)(F)c1cccc(C2=CCN(CCc3ccc4ccccc4c3)CC2)c1 [xaliproden (hydrochloride salt), 1-[2-(2-naphthyl)ethyl]-4-(3-trifluoromethylphenyl)-1,2,3,6-tetrahydropyridine]
- concentration at 1 h [1, 4]: 2510 ng/mL
- concentration at 24 h [1, 4]: 74.3 ng/mL
- concentration at 1 h [1, 5]: 4.4 ng/mL
- concentration at 24 h [1, 5]: 5.2 ng/mL
- concentration at 168 h ([1]; male, Wistar, plasma, other: trans-tympanic injection, rat, trans-tympanic 181.2 μg one ear, T0 + 168 hours, read-out: Concentration of xaliproden (hydrochloride salt), Plasma, Mean): 0.5 ng/mL
- Concentration of xaliproden (hydrochloride salt), IEF, Mean ([1]; rat inner ear fluid, trans-tympanic 181.2 μg, T0 + 168 hours): BLQ
- High concentrations rapidly reached in the IEF (molar) ([1]; rat): ~5 µM
- High concentrations rapidly reached in the inner ear fluid ([1]; rat): ~2500 ng/mL
- solubility [2]: < 100 µg/mL
- concentration at 1 h [3, 6]: 44.1 ng/mL
- concentration at 2 h [3, 6]: 58 ng/mL
- concentration at 4 h [3, 6]: 25.1 ng/mL
- concentration at 6 h [3, 6]: 28.4 ng/mL
- concentration at 8 h [3, 6]: 23.4 ng/mL
- concentration at 24 h ([3]; plasma, rat, single oral 20 mg/kg, T0 + 24 hours, read-out: Concentration of xaliproden (hydrochloride salt), Plasma, Mean): 44.1 ng/mL
- concentration at 2 h [3, 7]: 19.4 ng/mL
- concentration at 4 h [3, 7]: 21.7 ng/mL
- concentration at 24 h ([3]; rat inner ear fluid, single oral 20 mg/kg, T0 + 24 hours, read-out: Concentration of xaliproden (hydrochloride salt), IEF, Mean): 16 ng/mL

SMILES: FC(F)(F)c1cccc(C2=CCN(CCc3ccc(-c4ccccc4)cc3)CC2)c1 [paliroden (fumarate salt), 1-[2-(4-biphenylyl)ethyl]-4-(3-trifluoromethylphenyl)-1,2,3,6-tetrahydropyridine]
- concentration at 1 h [1, 8]: 5100 ng/mL
- concentration at 24 h [1, 8]: 3.2 ng/mL
- concentration at 1 h [1, 9]: 0.9 ng/mL
- concentration at 24 h [1, 9]: 1.7 ng/mL
- Concentration of paliroden (fumarate salt), IEF, Mean ([1]; rat inner ear fluid, trans-tympanic 243 μg, T0 + 168 hours): BLQ
- Concentration of paliroden (fumarate salt), Plasma, Mean ([1]; rat, trans-tympanic 243 μg one ear, T0 + 168 hours): BLQ
- High concentrations rapidly reached in the IEF (molar) ([1]; rat): approximately 10 μM
- High concentrations rapidly reached in the inner ear fluid ([1]; rat): approximately 5000 ng/mL
- solubility [2]: < 100 µg/mL
- concentration at 1 h [3, 10]: 35 ng/mL
- concentration at 2 h [3, 10]: 106 ng/mL
- concentration at 4 h [3, 10]: 3.1 ng/mL
- concentration at 6 h [3, 10]: 4.4 ng/mL
- concentration at 8 h [3, 10]: 1.6 ng/mL
- concentration at 24 h ([3]; plasma, rat, single oral 30 mg/kg, T0 + 24 hours, read-out: Concentration of paliroden (fumarate salt), Plasma, Mean): 1.7 ng/mL
- concentration at 2 h [3, 11]: 10.9 ng/mL
- concentration at 4 h [3, 11]: 2.6 ng/mL
- Concentration of paliroden (fumarate salt), IEF, Mean ([3]; rat inner ear fluid, single oral 30 mg/kg, T0 + 24 hours): BLQ
